Measurements published in publication PMC3951225, “Cytotoxic Sesquiterpene Lactones from Kauna lasiophthalma Griseb” (Scientia Pharmaceutica, 2014).
“Also recorded” adds a separate entry of the source.

How the values were obtained:
Type in all cases: cell-based, human
[1] = system: JIMT-1 cells; assay: MTT cytotoxicity dose-response assay, JIMT-1; conditions: 72 h treatment, a/b/c = one, two, three or more dose-response curves
Description: (§1) The L56Br-C1 cell line was established at the Department of Oncology, Clinical Sciences, Lund University, Sweden. The JIMT-1 cell line was purchased from the German Collection of Microorganisms and Cell Cultures (Braunschweig, Germany) and the MCF-7, SK-BR-3, HCC1937, and MCF-10A cells were obtained from the American Tissue Type Culture Collection (Manassas, VA, USA). The cell lines were cultured as monolayers at 37°C in a humidified incubator with 5% CO2 in air. The MCF-10A cells have a population doubling time of 15 hours, the JIMT-1 cells 24 hours, and the other four cell lines around 35 hours.
(§2) The L56Br-C1, MCF-7, SK-BR-3, and HCC1937 cells were cultured as described by Holst et al. JIMT-1 cells were cultured in DMEM/Ham’s F12 medium supplemented with 10% fetal calf serum, non-essential amino acids (1 mM), insulin (10 μg/ml), penicillin (100 U/ml), and streptomycin (100 μg/ml). MCF-10A cells were maintained in RPMI 1640 medium supplemented with 10% heat-inactivated fetal calf serum, non-essential amino acids (1 mM), insulin (10 μg/ml), epidermal growth factor (20 ng/ml), cholera toxin (50 ng/ml), hydrocortisone (250 ng/ml), penicillin (100 U/ml), and streptomycin (100 μg/ml). The MCF-10A and JIMT-1 cell lines were sub-cultured twice a week, while the L56Br-C1, MCF-7, SK-BR-3, and HCC1937 cells were sub-cultured once a week with an additional change of growth medium once a week.
(§3) Stock solutions ([…]) of the compounds were made in 100% DMSO. These were further diluted in PBS to obtain the correct concentrations used for the MTT assay. Appropriate DMSO controls were used. In general, the highest DMSO concentration was 0.1%, however, when treating with 100 μM and starting from a […] in 100% DMSO, a final concentration of 1% DMSO was used as the control.
(§4) The MTT assay was performed as previously described. Briefly, the cells were trypsinized and counted in a hemocytometer. Aliquots of 180 μl cell suspensions containing 3000 (MCF-10A) and 6000 (MCF-7, SK-BR-3, JIMT-1, L56Br-C1, and HCC1937) cells were seeded in the wells of 96-well plates. Compounds were added 24 hours after seeding to allow the attachment of cells. A concentration range between 0.1 to 100 μM was used in the MTT assays and appropriate DMSO controls. At 72 h of drug treatment, 20 μl of MTT solution (5 mg/ml MTT in PBS) was added to each well and the 96-well plates were returned to the CO2 incubator for 1 hour. The MTT-containing medium was removed. The blue formazan product formed by the reduction in live attached cells was dissolved by adding 100 μl of 100% DMSO per well after removal of the MTT-containing medium. The plates were swirled gently at room temperature for 10 minutes to dissolve the precipitate. Absorbance was monitored at 540 nm in a Labsystems iEMS Reader MF (Labsystems Oy, Helsinki, Finland) using the DeltaSoft II v.4.14 software (Biometallics Inc., Princeton, NJ, USA). Dose-response curves were drawn based on the % of the control in Excel. The IC50 was deduced from the curves.

[2] = system: HCC1937 cells; assay: MTT cytotoxicity dose-response assay, HCC1937; conditions: 72 h treatment, a/b/c = one, two, three or more dose-response curves
Description: as §1, §2, §3, §4

[3] = system: MCF-7 cells; assay: MTT cytotoxicity dose-response assay, MCF-7; conditions: 72 h treatment, a/b/c = one, two, three or more dose-response curves
Description: as §1, §2, §3, §4

[4] = system: SK-BR-3 cells; assay: MTT cytotoxicity dose-response assay, SK-BR-3; conditions: 72 h treatment, a/b/c = one, two, three or more dose-response curves
Description: as §1, §2, §3, §4

[5] = MTT cytotoxicity dose-response assay, MCF-10A (non-cancerous); conditions: human, MCF-10A cells (normal-like breast epithelial cell line), 72 h treatment, a/b/c = one, two, three or more dose-response curves
Description: as §1, §2, §3, §4

[6] = system: breast cancer cell lines HCC1937, JIMT-1, L56Br-C1, MCF-7, and SK-BR-3; assay: MTT assay, panel of five breast cancer cell lines; conditions: breast cell lines, comparison among the tested compounds
Description: The anticancer activities of sesquiterpenes 1, 3, 6–9, 11, 12, 14, and 16 were assessed in five breast-cancer cell lines, HCC1937, JIMT-1, L56Br-C1, MCF-7, and SK-BR-3, and compared with the cytotoxicity in the breast-derived non-cancerous cell line MCF-10A using the MTT colorimetric assay. […] 16 is an unsaturated ester and differs in that respect from the other compounds, but the lower activity of 3 compared to the similar compounds was unexpected. Costunolide (1) differs from the eudesmane sesquiterpenes by having the unsaturated lactone fused with a macrocyclic system instead of a cyclohexane ring, and the tension of the lactone ring is likely to be lower in 1. […] The difference in the activities of 7 and 8 may depend on the higher lipophilicity of 8, facilitating its absorption into the cells. In 11 and 14, the presence of a second Michael acceptor function may influence the activity. […] MCF-7 has a normal wild type p53 gene, which the MCF-10A cells also have, while the others have a mutated p53.
as §3, §4

[7] = system: L56Br-C1 cells; assay: MTT cytotoxicity dose-response assay, L56Br-C1; conditions: 72 h treatment, a/b/c = one, two, three or more dose-response curves
Description: as §1, §2, §3, §4

## COC(=O)C(N)CSCC1C(=O)OC2C1CCC1(C)C(O)CC=C(C)C21 (centres unmarked) [Compound 21]
[1]; Homo sapiens, JIMT-1, 72 h
  IC50: > 100 µM
[2]; Homo sapiens, HCC1937, 72 h
  IC50: 100 µM
[3]; Homo sapiens, MCF7, 72 h
  IC50: > 100 µM
[4]
  IC50: 40 µM
[4]; Homo sapiens, SK-BR-3, 72 h
  IC50: 51 µM
[5]
  IC50 at 72 h: 41 µM
[6]
  Anticancer activity / relative potency in words: significantly less potent; also recorded: inactive or considerably less potent
[7]; Homo sapiens, 72 h
  IC50: 73 µM

## C=C1C(=O)OC2C1CCC1(C)C(O)CCC(=C)C21 (stereo not drawn) [Compound 7, 1-epi-reynosin]
[1]
  IC50: 14 µM
[1]; Homo sapiens, JIMT-1, 72 h
  IC50: 12 µM
[2]
  IC50: 18.5 µM
[2]; Homo sapiens, HCC1937, 72 h
  IC50: 12 µM
[3]
  IC50: 30 µM
[3]; Homo sapiens, MCF7, 72 h
  IC50: 23 µM
[4]
  IC50: 6.4 µM
[4]; Homo sapiens, SK-BR-3, 72 h
  IC50: 7.6 µM
[5]
  IC50 at 72 h: 22 µM
[7]
  IC50: 10.1 µM
[7]; Homo sapiens, 72 h
  IC50: 9 µM

## C=C1CC[C@H](OC(C)=O)[C@]2(C)CC[C@H]3C(=C)C(=O)O[C@@H]3[C@@H]12 (relative stereo) [Compound 8, (3aS*,5aR*,6S*,9aS*,9bS*)-5a-Methyl-3,9-dimethylidene-2-oxododecahydro-naphtho[1,2-b]furan-6-yl acetate]
[1]
  IC50: 7 µM
[1]; Homo sapiens, JIMT-1, 72 h
  IC50: 6.3 µM
[3]; Homo sapiens, MCF7, 72 h
  IC50: 11 ± 1.7 µM
[4]; Homo sapiens, SK-BR-3, 72 h
  IC50: 4.7 ± 1.1 µM
[5]
  IC50 at 72 h: 24 µM
[7]
  IC50: 12 µM
[7]; Homo sapiens, 72 h
  IC50: 8.4 µM

## C=C1C(=O)O[C@@H]2[C@H]3C(C)=CC[C@@H](O)[C@]3(C)CC[C@@H]12 [Compound 9, santamarin]
[1]
  IC50: 7.2 µM
[1]; Homo sapiens, JIMT-1, 72 h
  IC50: 6.9 µM
[2]; Homo sapiens, HCC1937, 72 h
  IC50: 8.1 ± 1.8 µM
[3]; Homo sapiens, MCF7, 72 h
  IC50: 9.7 ± 0.9 µM
[4]; Homo sapiens, SK-BR-3, 72 h
  IC50: 3.1 ± 0.6 µM
[5]
  IC50 at 72 h: 17 µM
[7]; Homo sapiens, 72 h
  IC50: 12.3 ± 5.5 µM

## C=C1CC[C@@H](O)[C@]2(C)CC[C@H]3C(=C)C(=O)O[C@@H]3[C@@H]12 [Compound 6, reynosin]
[1]
  IC50: 12 µM
[1]; Homo sapiens, JIMT-1, 72 h
  IC50: 8.5 µM
[2]; Homo sapiens, HCC1937, 72 h
  IC50: 10 µM
[3]; Homo sapiens, MCF7, 72 h
  IC50: 16.4 ± 7.1 µM
[4]; Homo sapiens, SK-BR-3, 72 h
  IC50: 5.2 ± 1.6 µM
[5]
  IC50 at 72 h: 17 µM
[7]; Homo sapiens, 72 h
  IC50: 11 µM

## C=C1C(=O)O[C@@H]2[C@@H]3[C@@](C)(CC[C@@H]12)[C@@H](OC(C)=O)CC[C@]3(C)O (relative stereo) [Compound 3, (+)-(3aS*,5aR*,6S*,9S*,9aS*,9bS*)-9-Hydroxy-5a,9-dimethyl-3-methylidene-2-oxododeca-hydronaphtho[1,2-b]furan-6-yl acetate]
[1]; Homo sapiens, JIMT-1, 72 h
  IC50: 18 µM
[2]; Homo sapiens, HCC1937, 72 h
  IC50: 23 µM
[3]; Homo sapiens, MCF7, 72 h
  IC50: 27 µM
[4]; Homo sapiens, SK-BR-3, 72 h
  IC50: 10.1 µM
[5]
  IC50 at 72 h: 38 µM
[6]
  Anticancer activity / relative potency in words: lowest activity
[7]; Homo sapiens, 72 h
  IC50: 9.3 µM
